Data reported in patent publication US20250197414A1, “SALT FORM AND CRYSTAL FORM OF VANIN ENZYME INHIBITOR, METHOD FOR PREPARING SAME, AND USE THEREOF” (SHANGHAI MEIYUE BIOTECH DEVELOPMENT CO., LTD., priority 2022, published 2025).
Where two headings read alike, the source gives them in different places.

Experiments:
Format in all cases: physicochemical
[1] = Solubility test of compound of formula I and its salts at 37° C.; settings: for solubility at 1 h / solubility at 24 h: thermodynamic from solid; for solubility at 1 h / solubility at 24 h / Solubility (mg/mL) (1 h) / Solubility (mg/mL) (24 h): calculated as free base; for solubility at 1 h: read-out: Solubility (mg/mL) (1 h); for solubility at 24 h: read-out: Solubility (mg/mL) (24 h); for solubility (in words): water, pH 7.4 at 37° C.
Protocol: The solubility of the compound of formula I and the L-tartrate, fumarate, and D-malate thereof was studied in water, SGF, FaSSIF, FeSSIF, and pH 7.4 at 37° C.
Experimental method: 30 mg (in water) or 15 mg of the sample was weighed into a 4 mL vial, then 3 mL of the medium to be tested was added thereto, and the resulting mixture was stirred continuously at 37° C. 0.5 mL of the sample was collected at 1 hour and 24 hours, respectively, and centrifuged at 12,000 rpm for 5 minutes. The supernatant was diluted to an appropriate multiple with 50% acetonitrile and its concentration was determined.
Therefore, 13 mg of the fumarate of the compound of formula I was weighed into a 25 mL volumetric flask (approximately 10 mg added to the 25 mL volumetric flask, calculated as free base), dissolved in 50% acetonitrile aqueous solution and diluted to the scale, and two samples were prepared in parallel. STD-1 was diluted to 200 μg/mL, 50 μg/mL, and 10 μg/mL with 50% acetonitrile aqueous solution. 5 μL of the sample was injected, and the standard curve was plotted.

[2] = Hygroscopicity (dynamic vapor sorption classification)
Protocol: Approximately 10 mg of the sample was weighed at 25° C. under a 0% to 95% to 0% relative humidity (RH) cycle for testing the moisture absorption/desorption characteristics.

[3] = Stability test of mono-L-tartrate, fumarate and D-malate (related substances by HPLC); settings: for Purity (HPLC): in % (unit assumed); for chemical stability: after accelerated high humidity and high temperature testing
Protocol: The stability of the mono-L-tartrate, fumarate, and D-malate of the compound of formula I obtained in examples 1 to 3 was studied. […]
Detection of related substances: Approximately 5 mg of the sample was weighed into a 40 mL sample vial, dissolved in 10 mL of 50% acetonitrile aqueous solution and diluted to the scale, and 5 μL of the sample was injected.

[4] = Stability study on crystal form A (related substances by HPLC, crystal form by XRPD)
Protocol: Detection method of stability sample related substances: Approximately 5 mg of the sample was weighed, added with 5 mL of 20% methanol, ultrasonicated for a few seconds so that the compound can be completely dissolved, and 5 μL of the sample was injected for testing of related substances.

[5] = pH 7.4 medium, aqueous buffer, pH 7.4, 37° C.
[6] = simulated gastric fluid, SGF, 37° C.

O=C(c1ccc(N[C@@H]2CCc3ncccc32)nc1)N1CCC2(CCOCC2)C1 [Compound of formula I]
Final pH ([1]; FaSSIF, 37° C.): 6.38 | Sample appearance ([1]; FaSSIF, 37° C.): Clarified solution | Final pH ([1]; FeSSIF, 37° C.): 4.99 | Sample appearance ([1]; FeSSIF, 37° C.): Clarified solution | Final pH ([1]; SGF, 37° C.): 1.37 | Sample appearance ([1]; SGF, 37° C.): Clarified solution | Final pH ([1]; Water, 37° C.): 7.32 | Sample appearance ([1]; Water, 37° C.): Clarified solution | Final pH ([1]; pH 7.4, 37° C.): 7.56 | Sample appearance ([1]; pH 7.4, 37° C.): Clarified solution | solubility at 1 h [1, 5]: 5.11 mg/mL | solubility at 24 h [1, 5]: 5.2 mg/mL | solubility at 1 h [1, 6]: 5.23 mg/mL | solubility at 24 h [1, 6]: 5.39 mg/mL | solubility at 1 h ([1]; FaSSIF, 37° C.): 5.1 mg/mL | solubility at 24 h ([1]; FaSSIF, 37° C.): 5.22 mg/mL | solubility at 1 h ([1]; FeSSIF, 37° C.): 5.46 mg/mL | solubility at 24 h ([1]; FeSSIF, 37° C.): 5.33 mg/mL | solubility at 1 h ([1]; Water, 37° C.): 10.6 mg/mL | solubility at 24 h ([1]; Water, 37° C.): 10.8 mg/mL | solubility (in words) ([1]; SGF, FaSSIF, FeSSIF): good solubility | hygroscopicity [2]: highly hygroscopic

O=C(O)CC(O)C(=O)O.O=C(c1cnc(NC2CCc3ncccc32)nc1)N1CCC2(CCOCC2)C1 [D-malate of compound of formula I]
Sample appearance ([1]; FaSSIF, 37° C.): Clarified solution | Solubility (mg/mL) (1 h) ([1]; FaSSIF, 37° C.): 5.26 mg/mL | Solubility (mg/mL) (24 h) ([1]; FaSSIF, 37° C.): 5.36 mg/mL | Sample appearance ([1]; FeSSIF, 37° C.): Clarified solution | Solubility (mg/mL) (1 h) ([1]; FeSSIF, 37° C.): 5.31 mg/mL | Solubility (mg/mL) (24 h) ([1]; FeSSIF, 37° C.): 5.28 mg/mL | Sample appearance ([1]; SGF, 37° C.): Clarified solution | Solubility (mg/mL) (1 h) ([1]; SGF, 37° C.): 5.36 mg/mL | Solubility (mg/mL) (24 h) ([1]; SGF, 37° C.): 5.37 mg/mL | Final pH ([1]; Water, 37° C.): 3.75 | Sample appearance ([1]; Water, 37° C.): Clarified solution | Solubility (mg/mL) (1 h) ([1]; Water, 37° C.): 10.60 mg/mL | Solubility (mg/mL) (24 h) ([1]; Water, 37° C.): 10.76 mg/mL | Sample appearance ([1]; pH 7.4, 37° C.): Clarified solution | Solubility (mg/mL) (1 h) ([1]; pH 7.4, 37° C.): 5.54 mg/mL | Solubility (mg/mL) (24 h) ([1]; pH 7.4, 37° C.): 5.53 mg/mL | solubility (in words) ([1]; SGF, FaSSIF, FeSSIF): good solubility | Total impurities % ([3]; 40° C./75% RH-closed-20 d): 0.09% | Purity (HPLC) ([3]; 40° C./75% RH-closed-20 d): 99.91 | Total impurities % ([3]; 40° C./75% RH-open-20 d): 0.10% | Purity (HPLC) ([3]; 40° C./75% RH-open-20 d): 99.90 | Total impurities % ([3]; 60° C.-open-20 d): 0.18% | Purity (HPLC) ([3]; 60° C.-open-20 d): 99.82 | Total impurities % ([3]; Initial): 0.11% | Purity (HPLC) ([3]; Initial): 99.89 | chemical stability [3]: good chemical stability

O=C(O)C=CC(=O)O.O=C(c1cnc(NC2CCc3ncccc32)nc1)N1CCC2(CCOCC2)C1 (centres unmarked) [Fumarate of compound of formula I]
Sample appearance ([1]; FaSSIF, 37° C.): Clarified solution | Solubility (mg/mL) (1 h) ([1]; FaSSIF, 37° C.): 5.44 mg/mL | Solubility (mg/mL) (24 h) ([1]; FaSSIF, 37° C.): 5.57 mg/mL | Sample appearance ([1]; FeSSIF, 37° C.): Clarified solution | Solubility (mg/mL) (1 h) ([1]; FeSSIF, 37° C.): 5.75 mg/mL | Solubility (mg/mL) (24 h) ([1]; FeSSIF, 37° C.): 5.63 mg/mL | Sample appearance ([1]; SGF, 37° C.): Clarified solution | Solubility (mg/mL) (1 h) ([1]; SGF, 37° C.): 5.37 mg/mL | Solubility (mg/mL) (24 h) ([1]; SGF, 37° C.): 5.46 mg/mL | Final pH ([1]; Water, 37° C.): 3.32 | Sample appearance ([1]; Water, 37° C.): Clarified solution | Solubility (mg/mL) (1 h) ([1]; Water, 37° C.): 11.05 mg/mL | Solubility (mg/mL) (24 h) ([1]; Water, 37° C.): 11.37 mg/mL | Sample appearance ([1]; pH 7.4, 37° C.): Clarified solution | Solubility (mg/mL) (1 h) ([1]; pH 7.4, 37° C.): 5.65 mg/mL | Solubility (mg/mL) (24 h) ([1]; pH 7.4, 37° C.): 5.61 mg/mL | solubility (in words) ([1]; SGF, FaSSIF, FeSSIF): good solubility | Total impurities % ([3]; 40° C./75% RH-closed-2 wks): 0.30% | Purity (HPLC) ([3]; 40° C./75% RH-closed-2 wks): 99.70 | Total impurities % ([3]; 40° C./75% RH-open-2 wks): 0.31% | Purity (HPLC) ([3]; 40° C./75% RH-open-2 wks): 99.69 | Total impurities % ([3]; 60° C.-open-2 wks): 0.32% | Purity (HPLC) ([3]; 60° C.-open-2 wks): 99.68 | Total impurities % ([3]; Initial): 0.31% | Purity (HPLC) ([3]; Initial): 99.69 | chemical stability [3]: good chemical stability

O=C(O)C(O)C(O)C(=O)O.O=C(c1cnc(NC2CCc3ncccc32)nc1)N1CCC2(CCOCC2)C1 (centres unmarked) [crystal form A]
Individual impurities % ([4]; 40° C./75% RH-closed-2 wks): 0.04% | Purity % ([4]; 40° C./75% RH-closed-2 wks): 99.92% | Total impurities % ([4]; 40° C./75% RH-closed-2 wks): 0.08% | Individual impurities % ([4]; 40° C./75% RH-open-2 wks): 0.06% | Purity % ([4]; 40° C./75% RH-open-2 wks): 99.89% | Total impurities % ([4]; 40° C./75% RH-open-2 wks): 0.11% | Individual impurities % ([4]; 60° C.-open-2 wks): 0.06% | Purity % ([4]; 60° C.-open-2 wks): 99.87% | Total impurities % ([4]; 60° C.-open-2 wks): 0.13% | Individual impurities % ([4]; 80% RH-open-2 wks): 0.05% | Purity % ([4]; 80% RH-open-2 wks): 99.90% | Total impurities % ([4]; 80% RH-open-2 wks): 0.10% | Individual impurities % ([4]; 92.5% RH-open-2 wks): 0.06% | Purity % ([4]; 92.5% RH-open-2 wks): 99.89% | Total impurities % ([4]; 92.5% RH-open-2 wks): 0.11% | Individual impurities % ([4]; Initial): 0.04% | Purity % ([4]; Initial): 99.92% | Total impurities % ([4]; Initial): 0.08% | change of crystal form ([4]; at 60° C. under high humidity conditions of 80% RH): has not changed | crystal form obtained after exposure ([4]; exposed to 92.5% RH for 3 days): crystal form B | stability (in words) ([4]; high temperature and high humidity conditions): good stability

O=C(c1cnc(N[C@@H]2CCc3ncccc32)nc1)N1CCC2(CCOCC2)C1 [Mono-L-tartrate of compound of formula I]
Final pH ([1]; FaSSIF, 37° C.): 3.84 | Sample appearance ([1]; FaSSIF, 37° C.): Clarified solution | Sample appearance ([1]; FeSSIF, 37° C.): Clarified solution | Sample appearance ([1]; SGF, 37° C.): Clarified solution | Final pH ([1]; Water, 37° C.): 3.21 | Sample appearance ([1]; Water, 37° C.): Clarified solution | Sample appearance ([1]; pH 7.4, 37° C.): Clarified solution | solubility at 1 h [1, 5]: 5.09 mg/mL | solubility at 24 h [1, 5]: 4.97 mg/mL | solubility at 1 h [1, 6]: 5.19 mg/mL | solubility at 24 h [1, 6]: 5.25 mg/mL | solubility at 1 h ([1]; FaSSIF, 37° C.): 5.08 mg/mL | solubility at 24 h ([1]; FaSSIF, 37° C.): 5.12 mg/mL | solubility at 1 h ([1]; FeSSIF, 37° C.): 5.12 mg/mL | solubility at 24 h ([1]; FeSSIF, 37° C.): 5.02 mg/mL | solubility at 1 h ([1]; Water, 37° C.): 10.3 mg/mL | solubility at 24 h ([1]; Water, 37° C.): 10.5 mg/mL | solubility (in words) ([1]; SGF, FaSSIF, FeSSIF): good solubility | Total impurities % ([3]; 40° C./75% RH-closed-2 wks): 0.06% | Purity (HPLC) ([3]; 40° C./75% RH-closed-2 wks): 99.94 | Total impurities % ([3]; 40° C./75% RH-open-2 wks): 0.10% | Purity (HPLC) ([3]; 40° C./75% RH-open-2 wks): 99.90 | Total impurities % ([3]; 60° C.-open-2 wks): 0.08% | Purity (HPLC) ([3]; 60° C.-open-2 wks): 99.92 | Total impurities % ([3]; Initial): 0.06% | Purity (HPLC) ([3]; Initial): 99.94 | chemical stability [3]: good chemical stability
